Experimental findings from ChEMBL document CHEMBL1124283, “1,4-Dihydropyridine antagonist activities at the calcium channel: a quantitative structure-activity relationship approach” (J Med Chem, 1988) are described below.

One experiment is filed under the species Cavia porcellus. As to the kind of experiment: Effective concentration required to produce mechanical response determined in muscle strips of guinea pig. The following applies: Muscle tissue, read-out: Log 1/EC50 (converted). The class given is functional.
A short description of experiment [1]: Compound was tested for its antagonist activity against calcium channel. Type of experiment: functional, Homo sapiens.

In the case of `COC(=O)C1=C(C)N=C(C)/C(=C(\O)OC)C1c1cc([N+](=O)[O-])ccc1Cl` (stereo not drawn), the EC50 in the experiment listed under Cavia porcellus was 0.0302 µM. Turning to `COC(=O)C1=C(C)N=C(C)/C(=C(\O)OC)C1c1ccccc1N` (stereo not drawn), in the experiment listed under Cavia porcellus, the EC50 was 39.8 µM. On the same count and under the same terms, the same measure for `CCc1ccccc1C1C(C(=O)OC)=C(C)N=C(C)/C1=C(\O)OC` (stereo not drawn): 0.00646 µM. `COC(=O)C1=C(C)N=C(C)/C(=C(\O)OC)C1c1ccccc1Cl` (stereo not drawn): the “Log 1/IC50” value in experiment [1] was 9.78. Also, in the experiment listed under Cavia porcellus, the EC50 was 0.00219 µM. `CCOc1ccccc1C1C(C(=O)OC)=C(C)N=C(C)/C1=C(\O)OC` (stereo not drawn): in the experiment filed under Cavia porcellus, the EC50 was 0.11 µM. Take `COC(=O)C1=C(C)N=C(C)/C(=C(\O)OC)C1c1ccccc1I` (stereo not drawn): in experiment [1], the “Log 1/IC50” value is 10.8. Also, in the experiment filed under Cavia porcellus, the EC50 was 0.0468 µM. Take `COC(=O)C1=C(C)N=C(C)/C(=C(\O)OC)C1c1ccc(C#N)cc1` (stereo not drawn): in the experiment filed under Cavia porcellus, the EC50 was 3.47 µM. Take `COC(=O)C1=C(C)N=C(C)/C(=C(\O)OC)C1c1cccc(C#N)c1` (stereo not drawn): in experiment [1], the “Log 1/IC50” value is 8.68. Moreover, the EC50 in the experiment listed under Cavia porcellus is 0.0347 µM. For `COC(=O)C1=C(C)N=C(C)/C(=C(/O)OC)C1c1c(F)cccc1Cl` (stereo not drawn) the same measures were 8.37 and 0.00759 µM.

With `COC(=O)C1=C(C)N=C(C)/C(=C(\O)OC)C1c1ccc(F)cc1` (stereo not drawn), in experiment [1], the “Log 1/IC50” value is recorded as 7.46. For the same compound, the EC50 in the experiment filed under Cavia porcellus is 0.129 µM.

`COC(=O)C1=C(C)N=C(C)/C(=C(\O)OC)C1c1ccccc1C#N` (stereo not drawn): the “Log 1/IC50” value in experiment [1] came out at 9.18. Moreover, in the experiment filed under Cavia porcellus, the EC50 is 0.0158 µM. With `COC(=O)C1=C(C)NC(C)=C(C(=O)OC)C1c1ccccc1`, in experiment [1], the “Log 1/IC50” value is given as 7.85. For the same compound, the EC50 in the experiment listed under Cavia porcellus was 0.0282 µM. For the compound `COC(=O)C1=C(C)N=C(C)/C(=C(\O)OC)C1c1cccc(Cl)c1Cl` (stereo not drawn), the EC50 in the experiment listed under Cavia porcellus is 0.0191 µM. Still for that read-out and setting: the same measure for `COC(=O)C1=C(C)N=C(C)/C(=C(\O)OC)C1c1c(Cl)cccc1Cl` (stereo not drawn): 0.00191 µM.

Consider `COC(=O)C1=C(C)N=C(C)/C(=C(\O)OC)C1c1ccccc1Br` (stereo not drawn), for which the “Log 1/IC50” value in experiment [1] was found to be 10.49. For the same compound, in the experiment listed under Cavia porcellus, the EC50 is 0.00759 µM. For `COC(=O)C1=C(C)N=C(C)/C(=C(\O)OC)C1c1cccc(C)c1` (stereo not drawn), in that order: 7.28 and 0.11 µM.

Turning to `COC(=O)C1=C(C)NC(C)=C(C(=O)OC)C1c1ccc(N(C)C)cc1`, in the experiment listed under Cavia porcellus, the EC50 was 100 µM. `COC(=O)C1=C(C)N=C(C)/C(=C(\O)OC)C1c1cc([N+](=O)[O-])ccc1O` (stereo not drawn): the EC50 in the experiment filed under Cavia porcellus is 0.1 µM.

On to `COC(=O)C1=C(C)N=C(C)/C(=C(\O)OC)C1c1cccc(I)c1` (stereo not drawn), for which the EC50 in the experiment filed under Cavia porcellus is 0.0417 µM. Same read-out and setting: the same measure for `COC(=O)C1=C(C)N=C(C)/C(=C(\O)OC)C1c1cc(C)ccc1C` (stereo not drawn): 0.1 µM; for `COC(=O)C1=C(C)N=C(C)/C(=C(\O)OC)C1c1ccccc1C(F)(F)F` (stereo not drawn): 0.00151 µM.

As for `COC(=O)C1=C(C)N=C(C)/C(=C(\O)OC)C1c1cc(Cl)cc(Cl)c1` (stereo not drawn), the EC50 in the experiment listed under Cavia porcellus was 0.0933 µM. With `COC(=O)C1=C(C)N=C(C)/C(=C(\O)OC)C1c1cccc(F)c1` (stereo not drawn), the “Log 1/IC50” value in experiment [1] was determined as 8.49. For the same compound, the EC50 in the experiment listed under Cavia porcellus was 0.0209 µM.

For `COC(=O)C1=C(C)N=C(C)/C(=C(\O)OC)C1c1cccc(OC(=O)c2ccccc2)c1` (stereo not drawn), in the experiment listed under Cavia porcellus, the EC50 is 6.31 µM. On the same count and under the same terms, the same measure for `COC(=O)C1=C(C)N=C(C)/C(=C(\O)OC)C1c1cccc(O)c1` (stereo not drawn): 1 µM. For the compound `COC(=O)C1=C(C)NC(C)=C(C(=O)OC)C1c1ccccc1[N+](=O)[O-]` [NIFEDIPINE], in experiment [1], the “Log 1/IC50” value was 9.08. The EC50 in the experiment filed under Cavia porcellus was 0.00513 µM. Take `COC(=O)C1=C(C)N=C(C)/C(=C(\O)OC)C1c1cccc(N(C)C)c1` (stereo not drawn): in the experiment filed under Cavia porcellus, the EC50 is 0.891 µM.

For `COC(=O)C1=C(C)N=C(C)/C(=C(\O)OC)C1c1ccccc1OC` (stereo not drawn), in experiment [1], the “Log 1/IC50” value stood at 7.87. Besides, the EC50 in the experiment filed under Cavia porcellus was 0.0575 µM. For `COC(=O)C1=C(C)N=C(C)/C(=C(\O)OC)C1c1ccc(Cl)cc1` (stereo not drawn) the same measures were 6.22 and 8.13 µM. For `COC(=O)C1=C(C)N=C(C)/C(=C(\O)OC)C1c1c(F)c(F)c(F)c(F)c1F` (stereo not drawn), in that order: 10.37 and 0.00437 µM. Regarding `COC(=O)C1=C(C)N=C(C)/C(=C(\O)OC)C1c1cccc(Br)c1` (stereo not drawn), in the experiment filed under Cavia porcellus, the EC50 is 0.00129 µM. In the case of `COC(=O)C1=C(C)N=C(C)/C(=C(\O)OC)C1c1cccc(C(F)(F)F)c1` (stereo not drawn), the EC50 in the experiment listed under Cavia porcellus is 0.0741 µM. In the case of `COC(=O)C1=C(C)N=C(C)/C(=C(\O)OC)C1c1ccc(I)cc1` (stereo not drawn), the EC50 in the experiment filed under Cavia porcellus is 22.9 µM. As for `COC(=O)C1=C(C)N=C(C)/C(=C(\O)OC)C1c1ccc(C)cc1` (stereo not drawn), the “Log 1/IC50” value in experiment [1] came to 7.18. For the compound `COC(=O)C1=C(C)N=C(C)/C(=C(\O)OC)C1c1ccccc1F` (stereo not drawn), the “Log 1/IC50” value in experiment [1] is given as 8.44. Further, the EC50 in the experiment listed under Cavia porcellus was 0.0427 µM. For `COC(=O)C1=C(C)N=C(C)/C(=C(\O)OC)C1c1cccc(N=[N+]=[N-])c1` (stereo not drawn), the “Log 1/IC50” value in experiment [1] was determined as 8.67. As for `COC(=O)C1=C(C)N=C(C)/C(=C(\O)OC)C1c1ccccc1C` (stereo not drawn), the “Log 1/IC50” value in experiment [1] was 8.71. Moreover, the EC50 in the experiment filed under Cavia porcellus is 0.00603 µM. Take `COC(=O)C1=C(C)N=C(C)/C(=C(\O)OC)C1c1cccc(N)c1` (stereo not drawn): the EC50 in the experiment filed under Cavia porcellus is 2 µM. Take `COC(=O)C1=C(C)N=C(C)/C(=C(/O)OC)C1c1cccc(Cl)c1` (stereo not drawn): in experiment [1], the “Log 1/IC50” value is 9.3. Besides, the EC50 in the experiment filed under Cavia porcellus is 0.0158 µM.

For the compound `COC(=O)C1=C(C)N=C(C)/C(=C(\O)OC)C1c1cccc(OC(C)=O)c1` (stereo not drawn), the EC50 in the experiment filed under Cavia porcellus is 6.03 µM. For `COC(=O)C1=C(C)N=C(C)/C(=C(\O)OC)C1c1cc(OC)c(OC)cc1OC` (stereo not drawn), the EC50 in the experiment filed under Cavia porcellus is 1000 µM. Take `C=Cc1ccccc1C1C(C(=O)OC)=C(C)N=C(C)/C1=C(\O)OC` (stereo not drawn): the EC50 in the experiment filed under Cavia porcellus was 0.00447 µM.

Take `COC(=O)C1=C(C)N=C(C)/C(=C(\O)OC)C1c1cccc(OC)c1` (stereo not drawn): in experiment [1], the “Log 1/IC50” value was found to be 7.27. Further, the EC50 in the experiment filed under Cavia porcellus was 0.191 µM. `COC(=O)C1=C(C)N=C(C)/C(=C(\O)OC)C1c1cccc([N+](C)(C)C)c1` (stereo not drawn): in experiment [1], the “Log 1/IC50” value was below 5. The EC50 in the experiment filed under Cavia porcellus is 50.1 µM.
